This note sets out measurements from patent US20050075388A1 (published 2005).

Usually melting point stands for the temperature, or range, at which the solid turns liquid.

`O=c1oc2ccccc2c(O)c1C(CCCC(c1c(O)c2ccccc2oc1=O)c1c(O)c2ccccc2oc1=O)c1c(O)c2ccccc2oc1=O`: the melting point was in the range of 291 to 294 °C.

Turning to `O=c1oc2cc(O)ccc2c(O)c1C(CCCC(c1c(O)c2ccc(O)cc2oc1=O)c1c(O)c2ccc(O)cc2oc1=O)c1c(O)c2ccc(O)cc2oc1=O`, the melting point fell in the range of 299 to 302 °C.

`O=c1oc2c(O)c(O)ccc2c(O)c1C(CCCC(c1c(O)c2ccc(O)c(O)c2oc1=O)c1c(O)c2ccc(O)c(O)c2oc1=O)c1c(O)c2ccc(O)c(O)c2oc1=O`: the melting point is more than 300 °C.

For `CCOC1Oc2c(c(=O)oc3ccccc23)C1c1c(O)c2ccccc2oc1=O` (stereo not shown), the melting point fell in the range of 166 to 169 °C.

In turn, `O=c1oc2cc(O)cc(O)c2c(O)c1C1c2ccccc2Oc2c1c(=O)oc1cc(O)cc(O)c21` (stereo not shown) gave a melting point of more than 300 °C.

On to `O=c1oc2cc(O)c(O)cc2c(O)c1C(CCCC(c1c(O)c2cc(O)c(O)cc2oc1=O)c1c(O)c2cc(O)c(O)cc2oc1=O)c1c(O)c2cc(O)c(O)cc2oc1=O`, for which the melting point was more than 300 °C.

The compound `O=Cc1ccccc1C(c1c(O)c2ccc(O)c(O)c2oc1=O)c1c(O)c2ccc(O)c(O)c2oc1=O` registered a melting point of more than 300 °C.

`O=c1oc2ccccc2c(O)c1C(CC(c1c(O)c2ccccc2oc1=O)c1c(O)c2ccccc2oc1=O)c1c(O)c2ccccc2oc1=O` registered a melting point of 286 to 288 °C.

In turn, `O=c1oc2cc(O)cc(O)c2c(O)c1C(CCCC(c1c(O)c2c(O)cc(O)cc2oc1=O)c1c(O)c2c(O)cc(O)cc2oc1=O)c1c(O)c2c(O)cc(O)cc2oc1=O` displayed a melting point of more than 300 °C.

`O=c1oc2cc(O)c(O)cc2c(O)c1C1=CCOc2oc3ccccc3c(=O)c21` yielded a melting point of 258 to 260 °C.

As to `O=c1oc2cc(O)ccc2c(O)c1-c1coc2c1c(=O)oc1cc(O)ccc12`, the melting point was more than 300 °C.

With `O=Cc1ccccc1C(c1c(O)c2ccc(O)cc2oc1=O)c1c(O)c2ccc(O)cc2oc1=O`, the melting point was more than 300 °C.

On to `COC1Oc2c(c(=O)oc3cc(O)ccc23)C1c1c(O)c2ccc(O)cc2oc1=O` (stereo not shown), for which the melting point is more than 300 °C.

As to `O=CC(c1c(O)c2ccc(O)cc2oc1=O)c1c(O)c2ccc(O)cc2oc1=O`, the melting point is more than 300 °C.

Take `O=c1oc2ccccc2c(O)c1C1c2ccccc2Oc2c1c(=O)oc1ccccc21` (stereo not shown): the melting point was > 255 °C (dec.).

On to `O=c1oc2cc(O)cc(O)c2c(O)c1C1=CCOc2oc3ccccc3c(=O)c21`, for which the melting point lay in the range of 254 to 256 °C.
